Laboratory results published in patent US10584124B2, “Crystalline forms” (Array BioPharma Inc., priority 2017, dated 2020).
Read-outs that look alike come from different tables or passages of the source.

Assays:
GVS hygroscopicity = format: physicochemical
Source text: The instruments and methods of analysis used in the polymorph screens described in Examples 5 are described in Example 4, above.

[1] = Isothermic (25° C.) DVS analysis of salts of the compound of Formula I; format: physicochemical; settings: for Mass gain by DVS: 80% relative humidity, 25° C.; for Hygroscopicity by DVS (in words): isothermic 25° C.; for Deliquescence upon removal from the DVS chamber: sample remained a free-flowing powder
Source text: (FIG. 16D). […] Some hysteresis was observed. […] (FIG. 16C). […] (FIG. 16D).
(FIG. 18A). […] (FIG. 18B). […] Some hysteresis was observed. […] An overlay of FTIR spectra of the L- and D-malic acid salts is shown in FIG. 18F. ^1H NMR spectra of the L- and D-malic salts in DMSO-d^6 are shown in FIG. 18G-18H, respectively.

[2] = Solubility test of the D-malic acid salt (room temperature, 60° C., 70° C.); format: physicochemical; settings: for Solids dissolve at 70° C.?: 70° C. for approximately 3.0 hours
[3] = Stability screening of freebase and selected salts of Formula I, 40° C. and 75% RH, weekly HPLC over 4 weeks; settings: for Absolute % change: 40° C. and 75% RH, T = 0 to 4 weeks; for Stability, HPLC analysis, T = 1 week / Stability, HPLC analysis, T = 2 weeks / Stability, HPLC analysis, T = 3 weeks / Stability, HPLC analysis, T = 4 weeks / Stability, HPLC analysis, T = 0: stored at 40° C. and 75% RH
[4] = Solubility screening of the compound of Formula IV (freebase) in solvent mixtures; format: physicochemical; settings: approximately 25° C.

For `COc1ccc(CN2C3CC2CN(c2ccc(-c4cc(OCC(C)(C)O)cn5ncc(C#N)c45)cn2)C3)cn1` [Form 1], the “Hygroscopicity by GVS (in words)” value (GVS hygroscopicity) was “moderately hygroscopic” and the “Weight increase by GVS” value (GVS hygroscopicity; at 90% RH) was 2.6%.
With `COc1ccc(CN2CCN(c3ccc(-c4cc(-c5cnn(C)c5)cn5ncc(C#N)c45)cn3)CC2)cn1.O=C(O)C[C@@H](O)C(=O)O` [D-malic acid salt] the “Mass gain by DVS” value [1] was “approximately 2.8%”, the “Hygroscopicity by DVS (in words)” value [1] was “hygroscopic” and the “Deliquescence upon removal from the DVS chamber” value [1] was “no observable deliquescence”. The “Solids dissolve at 60° C.?” value ([2]; 60° C. for 3.0 hours, solvent 0.1M HCl, Yes) was “Yes (>15 mg/mL)”, the “Solids dissolve at 60° C.?” value ([2]; 60° C. for 3.0 hours, solvent 2-methyl THF) was “No” and the “Solids dissolve at 60° C.?” value ([2]; 60° C. for 3.0 hours, solvent ACN) was “No”. The “Solids dissolve at 60° C.?” value ([2]; 60° C. for 3.0 hours, solvent Acetone) was “No”, the “Solids dissolve at 60° C.?” value ([2]; 60° C. for 3.0 hours, solvent DCE) was “No” and the “Solids dissolve at 60° C.?” value ([2]; 60° C. for 3.0 hours, solvent DMSO, Yes) was “Yes (>40 mg/mL)”. The “Solids dissolve at 60° C.?” value ([2]; 60° C. for 3.0 hours, solvent EtOAc) was “No”, the “Solids dissolve at 60° C.?” value ([2]; 60° C. for 3.0 hours, solvent EtOH) was “No” and the “Solids dissolve at 60° C.?” value ([2]; 60° C. for 3.0 hours, solvent IPA) was “No”. The “Solids dissolve at 60° C.?” value ([2]; 60° C. for 3.0 hours, solvent MEK) was “No”, the “Solids dissolve at 60° C.?” value ([2]; 60° C. for 3.0 hours, solvent MTBE) was “No” and the “Solids dissolve at 60° C.?” value ([2]; 60° C. for 3.0 hours, solvent MeOH) was “No”. The “Solids dissolve at 60° C.?” value ([2]; 60° C. for 3.0 hours, solvent Toluene) was “No”, the “Solids dissolve at 60° C.?” value ([2]; 60° C. for 3.0 hours, solvent iPAc) was “No” and the “Solids dissolve at 60° C.?” value ([2]; 60° C. for 3.0 hours, solvent water) was “No”. The “Solids dissolve at 70° C.?” value ([2]; solvent 2-methyl THF) was “No”, the “Solids dissolve at 70° C.?” value ([2]; solvent ACN) was “No” and the “Solids dissolve at 70° C.?” value ([2]; solvent DCE) was “No”. The “Solids dissolve at 70° C.?” value ([2]; solvent DMSO, Yes) was “Yes (>56 mg/mL)”, the “Solids dissolve at 70° C.?” value ([2]; solvent EtOAc) was “No” and the “Solids dissolve at 70° C.?” value ([2]; solvent EtOH) was “No”. For the same molecule, the “Solids dissolve at 70° C.?” value ([2]; solvent IPA) was “No”, the “Solids dissolve at 70° C.?” value ([2]; solvent MEK) was “No” and the “Solids dissolve at 70° C.?” value ([2]; solvent MTBE) was “No”. For the same molecule, the “Solids dissolve at 70° C.?” value ([2]; solvent Toluene) was “No”, the “Solids dissolve at 70° C.?” value ([2]; solvent iPAc) was “No” and the “Solids dissolve at 70° C.?” value ([2]; solvent water) was “No”. For the same molecule, the “Solids dissolve at 60° C.?” value ([2]; solvent THF, cell says At 65° C.) was about 10 mg/mL, the Absolute % change [3] was 0.6% and the “Stability, HPLC analysis, T = 1 week” value [3] was 97.6%. For the same molecule, the “Stability, HPLC analysis, T = 2 weeks” value [3] was 97.4%, the “Stability, HPLC analysis, T = 3 weeks” value [3] was 97.2% and the “Stability, HPLC analysis, T = 4 weeks” value [3] was 97.1%. For the same molecule, the “Stability, HPLC analysis, T = 0” value [3] was 97.7%.
`CC(C)(O)COc1cc(-c2ccc(N3CCC(O)(Cc4ccccn4)CC3)nc2)c2c(C#N)cnn2c1` [compound of Formula IV, 6-(2-hydroxy-2-methylpropoxy)-4-(6-(4-hydroxy-4-(pyridin-2-ylmethyl)piperidin-1-yl)pyridin-3-yl)pyrazolo[1,5-a]pyridine-3-carbonitrile] showed a solubility ([4]; Water) of 0.007 mg/mL, a solubility ([4]; aqueous with cosolvent or surfactant or cyclodextrin, Acetone:water (1:1)) of 45.8 mg/mL and a solubility ([4]; aqueous with cosolvent or surfactant or cyclodextrin, EtOH:water (1:1)) of 51 mg/mL. For the same molecule, the solubility ([4]; organic solvent or mixture, ACN) was 21.2 mg/mL, the solubility ([4]; organic solvent or mixture, Acetone) was 42.9 mg/mL and the solubility ([4]; organic solvent or mixture, Acetone:heptane (1:1)) was 6.1 mg/mL. It also gave a solubility ([4]; organic solvent or mixture, Butanol) of 16.6 mg/mL, a solubility ([4]; organic solvent or mixture, Chloroform) of over 59 mg/mL and a solubility ([4]; organic solvent or mixture, Chloroform:heptane (1:1)) of 11.7 mg/mL. It also gave a solubility ([4]; organic solvent or mixture, DCM) of over 70 mg/mL, a solubility ([4]; organic solvent or mixture, EtOH:water (90:10)) of 55 mg/mL and a solubility ([4]; organic solvent or mixture, Ethanol) of 5.2 mg/mL. It also gave a solubility ([4]; organic solvent or mixture, Ethyl acetate) of 21 mg/mL, a solubility ([4]; organic solvent or mixture, IPA) of 7 mg/mL and a solubility ([4]; organic solvent or mixture, MEK) of 30.7 mg/mL. The solubility ([4]; organic solvent or mixture, MTBE) was 5.5 mg/mL, the solubility ([4]; organic solvent or mixture, Methanol) was over 74 mg/mL and the solubility ([4]; organic solvent or mixture, THF) was over 37 mg/mL. For the same molecule, the solubility ([4]; organic solvent or mixture, THF:heptane (30:70)) was 0.6 mg/mL and the solubility ([4]; organic solvent or mixture, p-dioxane) was over 62 mg/mL.
For `COc1ccc(CN2C3CC2CN(c2ccc(-c4cc(OCC(C)(C)O)cn5ncc(C#N)c45)cn2)C3)cn1.O=P(O)(O)O` [phosphate salt], the “Hygroscopicity by GVS (in words)” value (GVS hygroscopicity) was “highly hygroscopic”, the “Weight increase by GVS” value (GVS hygroscopicity) was “approximately 14%” and the “Form and crystallinity by XRPD after 7-day stability tests” value (ambient temperature and light, 40° C./75% RH, 80° C.) was “no change in form or crystallinity”. The “Purity after 7-day stability storage” value (stored 7 days at 40° C./75% RH) was 97.44%, the “Purity after 7-day stability storage” value (stored 7 days at 80° C.) was 64.96% and the “Purity after 7-day stability storage” value (stored 7 days at RT (ambient temperature and light)) was 98.03%.
In the case of `COc1ccc(CN2CCN(c3ccc(-c4cc(-c5cnn(C)c5)cn5ncc(C#N)c45)cn3)CC2)cn1.Cl` [HCl salt], the “Mass gain by DVS” value [1] is reported as “approximately 5%”, the “Hygroscopicity by DVS (in words)” value [1] is reported as “hygroscopic” and the “Deliquescence upon removal from the DVS chamber” value [1] is reported as “no observable deliquescence”. The Absolute % change [3] was 0.0%, the “Stability, HPLC analysis, T = 1 week” value [3] was 99.3% and the “Stability, HPLC analysis, T = 2 weeks” value [3] was 99.3%. For the same molecule, the “Stability, HPLC analysis, T = 3 weeks” value [3] was 99.3%, the “Stability, HPLC analysis, T = 4 weeks” value [3] was 99.3% and the “Stability, HPLC analysis, T = 0” value [3] was 99.3%.
